Data: patent US20070238146A1, “Kinetic metabolic assay for antifungal susceptibility testing” (priority 2006, published 2007)

How the values were obtained:
Assay type in all cases: cell-based, Candida albicans
[1] = system: C. albicans biofilm basal blastospores; test: KMA for in situ biofilm susceptibility testing (alamarBlue, modified medium, t-threshold)
Description: Biofilm cultures. Biofilms were grown in a tubular flow cell (TF). Silicone tubing (Cole-Panmer; catalog no. EW-95802-08) with an inner diameter of 4.78 mm, an outer diameter of 6.35 mm, a wall of 0.79 mm, and a length of 60 cm constituted the biofilm-growing region of the TF. The source of growth medium for the TF was a 2-liter Erlenineyer flask. A bubble trap was placed between the Erlenmeyer flask and the TF to prevent passage of air bubbles during biofilm growth. Flow rates of 1.17 ml/min (shear rate, 109.5 s^−1) were maintained by a peristaltic pump coupled at the effluent end of the TF. The residence time for the volume of liquid contained in the tubular reactor portion of the flow system (20-cm length of tubing) was 3 min. This condition ensured that the contribution to the cell population in the TF from cells in the planktonic mode of growth (doubling time, approximately 80 min) was negligible. After sterilization by autoclaving, the entire setup was placed horizontally on a grilled shelf in an incubator at 37° C. The TF was filled with growth medium before being inoculated with cells. The inoculum was prepared from a 24-h planktonic culture at a concentration of 10^8 cells/ml in 0.1 M phosphate-buffered saline (PBS, pH 7) buffer. It was fed into the TF from the effluent end by reversing the direction of flow. Flow was then discontinued for 1 h. After the 1 -h inoculation period, flow was resumed for 36 h. At the end of this culture period, the section of tubing in which the biofilm grew was clamped at both ends and removed by cutting the tubing with a sterile blade. The liquid column was drained into a petri dish by moving the tubing to a vertical position and releasing the clamps. The tubing was then rinsed with PBS buffer equivalent to one tube volume. The fraction of biofilm collected in the petri dish by this procedure is referred to as the shear-removed biofilm. […]
AmB treatment. […] This enabled recording of absorbance data for the metabolic indicator in real time without perturbing the well contents. […]

[2] = system: planktonic C. albicans cells; test: CFU assay of planktonic cells after AmB treatment; details: exponential phase planktonic cells
Description: CFU assay. CFU were estimated for both AmB treated and untreated planktonic sample. 100 μl planktonic C. albicans cells in PBS were serially diluted in 2 ml cuvettes (catalog no. BTCUV, Biotrace Inc.). The serial dilution was 10-fold across each cuvette. The required number of serial dilutions per sample were judged based on trial and error. A volume of 100 μl from each serially diluted cuvette was spread as a separate lane on an agar plate. […] Plates were incubated at 37° C. for 24 hours. CFU were estimated from dilutions whose numbers fell in the range of 10 to 100 colonies per lane. The appropriate dilution factor was multiplied to estimate the final viable cell concentration for every sample.
AmB treatment. AmB was from Biosource International Inc. (Fungizone with 0.00205% sodium deoxycholate solubilizing agent). A standard broth dilution method was used to assess the AmB MlC of CA-1, with ATCC 24433 used as a reference strain (32). AmB treatment of planktonic cells and shear-removed biofilm was preformed in 1.5-ml centrifuge tubes. The tubes contained a total working volume of 450 μl. […] This enabled recording of absorbance data for the metabolic indicator in real time without perturbing the well contents. […]
(ii) Calculation of percent viability. Viability in terms of CFU was calculated by using the kinetic parameters estimated for each sample and the corresponding calibrations. […]

[3] = system: planktonic C. albicans cells; test: kinetic metabolic assay (KMA, alamarBlue) of planktonic cells after 1 h AmB treatment
Description: Planktonic cultures. Cultures were grown aerobically in 250-ml Erlenmeyer flasks containing 100 ml growth medium. The flasks were placed in a shaker incubator at 37° C. and 160 rpm for the desired period of growth. C. albicans grew as budding yeast under these conditions. Exponential phase cells were harvested after a 5-h growth period and stationary-phase cells at 96 h.
AmB treatment. AmB was from Biosource International Inc. (Fungizone with 0.00205% sodium deoxycholate solubilizing agent). A standard broth dilution method was used to assess the AmB MlC of CA-1, with ATCC 24433 used as a reference strain (32). AmB treatment of planktonic cells and shear-removed biofilm was preformed in 1.5-ml centrifuge tubes. The tubes contained a total working volume of 450 μl. AmB dissolved in 200 μl of 0.1 M PBS (pH 7.0), and cells resuspended in 250 μl of PBS adjusted to an optical density of 0.05 (A660) were added to the 1.5-ml tube. After more than 10 preliminary experiments, the time between recovery of the shear-removed biofilm in the petri dish and exposure to AmB was reduced to approximately 5 min. The positive controls had no AmB, and the negative controls had no cells. For AmB treatment of the basal blastospore population, each sample consisted of a 0.5-cm long section of tubing cut from the TF. Each tubing sample was positioned in the 96-well plate (Corning Inc.; Costar 3370) such that its outer wall snugly fit along the wall of the well in the 96-well plate. This enabled recording of absorbance data for the metabolic indicator in real time without perturbing the well contents. The 0.5-cm tubing samples were randomly placed in the 96-well plate in order to randomize the distribution between treated samples and untreated controls. Solution (225 μl) containing AmB in 0.1 M PBS was added to wells to completely submerge the 0.5-cm tubing during the AmB treatment phase. Untreated samples were the positive controls. Three independent TF experiments were run, generating 24 samples per AmB concentration and 61 untreated controls for the basal blastospores. Sterile tubing was used as a negative control. In every experiment, a minimum of four negative controls were used. The AmB treatment period was 1 h across all cell populations. During AmB exposure, the 1.5-m1 tubes (containing either the planktonic or shear-removed populations) and 96 -well plates (containing the basal blastospores) were placed in a shaker incubator at 37° C. and 150 rpm. […]
Kinetic curves. Kinetic data of the reduction of metabolic indicators and turbidimetric changes were recorded for both AmB treated and untreated samples. […] The kinetic assay in the 96 well format was run for 24 h at 37° C. with continuous shaking in a Synergy-HT plate reader (Biotek Inc.). […]

In the case of `C[C@@H]1[C@H](O)[C@@H](C)/C=C/C=C/C=C/C=C/C=C/C=C/C=C/[C@H](O[C@@H]2O[C@H](C)[C@@H](O)[C@H](N)[C@@H]2O)C[C@@H]2O[C@](O)(C[C@@H](O)C[C@@H](O)[C@H](O)CC[C@@H](O)C[C@@H](O)CC(=O)O[C@H]1C)C[C@H](O)[C@H]2C(=O)O` [AmB, amphotericin B], the “activity of basal blastospores relative to other populations” value ([1]; AmB concentrations greater than or equal to 3.7 μg/ml, versus shear removed biofilm, stationary and exponential phase planktonic cells) is reported as “clearly more active than the other three populations”, the “AmB concentration up to which metabolic activity was exhibited” value ([1]; basal blastospore subpopulation in situ, highest tested concentration, 1 h AmB treatment) is reported as 28.26 µg/mL and the “loss of metabolic activity of basal blastospores relative to other samples” value ([1]; lower AmB concentrations (<1.77 μg/ml)) is reported as “greater loss of metabolic activity than the other samples”. The “AmB concentration beyond which complete killing was observed” value [2] was over 1.77 µg/mL, the “AmB concentration beyond which complete killing is achieved” value ([3]; exponential phase planktonic cells, KMA, 1 h AmB treatment) was over 1.77 µg/mL and the “AmB concentration up to which viability is detected” value ([3]; modified medium, exponential-phase cells, alamarBlue, t-threshold (FIG. 5)) was 1.77 µg/mL. The “AmB concentration up to which cells survive” value ([3]; stationary phase planktonic cells, alamarBlue, t-threshold, 1 h AmB treatment (FIG. 6)) was 3.55 µg/mL and the “AmB concentration up to which viability is detected (detection limit)” value ([3]; unmodified medium, exponential-phase cells, alamarBlue, t-threshold (FIG. 5)) was 0.88 µg/mL.
